Assay results from the NIST ThermoML archive (doi:10.1016/j.jct.2008.01.008).

Assay: xn = mol fraction of the nth substance listed
Details: 298.15 K, 101 kPa, Liquid; for viscosity: Capillary tube (Ostwald / Ubbelohde) method; for speed of sound: Sing-around technique in a fixed-path interferometer

COCC(C)OCC(C)OC (stereo not given) [2-methoxy-1-(2-methoxy-1-methylethoxy)propane] + CO
Details | mass density [kg/m3] | speed of sound [m/s] | viscosity [mPa·s]
x1 = 0.0146 | – | – | 0.567
x1 = 0.023 | 799.44 | 1116.2 | –
x1 = 0.0467 | – | – | 0.6092
x1 = 0.0705 | 820.052 | 1138.4 | –
x1 = 0.0738 | – | – | 0.644
x1 = 0.1106 | – | – | 0.6831
x1 = 0.1312 | 838.725 | 1158.2 | –
x1 = 0.1422 | – | – | 0.7112
x1 = 0.1632 | 846.233 | 1166.2 | –
x1 = 0.1646 | – | – | 0.7327
x1 = 0.1725 | – | – | 0.7378
x1 = 0.1988 | – | – | 0.7576
x1 = 0.2058 | – | – | 0.7648
x1 = 0.2094 | 855.089 | 1175.4 | –
x1 = 0.2514 | 861.6 | 1182 | –
x1 = 0.2621 | – | – | 0.8031
x1 = 0.3018 | 867.961 | 1188.1 | –
x1 = 0.3128 | – | – | 0.8321
x1 = 0.3583 | – | – | 0.8527
x1 = 0.3598 | 873.908 | 1193.9 | –
x1 = 0.4 | – | – | 0.871
x1 = 0.4036 | 877.603 | 1197.3 | –
x1 = 0.4549 | 881.296 | 1200.3 | 0.8941
x1 = 0.5022 | 884.189 | 1202.6 | –
x1 = 0.5123 | – | – | 0.9106
x1 = 0.5449 | 886.449 | 1204.3 | –
x1 = 0.5474 | – | – | 0.9206
x1 = 0.6169 | 889.615 | 1206.2 | –
x1 = 0.6261 | – | – | 0.9387
x1 = 0.6494 | 890.83 | 1206.8 | –
x1 = 0.6802 | – | – | 0.9504
x1 = 0.7083 | 892.78 | 1207.7 | –
x1 = 0.7319 | – | – | 0.9598
x1 = 0.7557 | – | – | 0.9634
x1 = 0.756 | 894.087 | 1207.9 | –
x1 = 0.7919 | – | – | 0.9682
x1 = 0.8114 | 895.425 | 1207.8 | –
x1 = 0.8537 | 896.298 | 1207.6 | –
x1 = 0.8565 | – | – | 0.9775
x1 = 0.9047 | 897.217 | 1207 | –
x1 = 0.9185 | – | – | 0.9855
x1 = 0.9327 | – | – | 0.9862
x1 = 0.9364 | 897.708 | 1206.2 | –
x1 = 0.9511 | 897.931 | 1206.2 | –
x1 = 0.9572 | – | – | 0.9881
x1 = 0.974 | – | – | 0.9898

COCC(C)OCC(C)OC (stereo not given) [2-methoxy-1-(2-methoxy-1-methylethoxy)propane] + CCCCCCCO
Details | mass density [kg/m3] | speed of sound [m/s] | viscosity [mPa·s]
x1 = 0.0148 | – | – | 5.604
x1 = 0.0292 | – | – | 5.348
x1 = 0.0609 | 825.134 | 1317.8 | –
x1 = 0.0718 | – | – | 4.664
x1 = 0.1164 | 830.66 | 1309.7 | –
x1 = 0.1196 | – | – | 4.033
x1 = 0.157 | 834.553 | 1303 | –
x1 = 0.1575 | – | – | 3.611
x1 = 0.1902 | – | – | 3.294
x1 = 0.2117 | 839.681 | 1295.5 | –
x1 = 0.2555 | – | – | 3.016
x1 = 0.259 | 843.957 | 1289.2 | –
x1 = 0.2613 | – | – | 2.766
x1 = 0.3119 | – | – | 2.468
x1 = 0.3132 | 848.706 | 1281.7 | –
x1 = 0.3539 | 852.157 | 1276.4 | –
x1 = 0.3616 | – | – | 2.235
x1 = 0.406 | 856.458 | 1270.5 | –
x1 = 0.4129 | – | – | 2.031
x1 = 0.4366 | – | – | 1.949
x1 = 0.4532 | – | – | 1.895
x1 = 0.4533 | 860.298 | 1264.9 | –
x1 = 0.5056 | 864.403 | 1258.8 | –
x1 = 0.511 | – | – | 1.736
x1 = 0.5326 | – | – | 1.673
x1 = 0.552 | 867.948 | 1253.6 | –
x1 = 0.5897 | – | – | 1.543
x1 = 0.5935 | 871.045 | 1249.2 | –
x1 = 0.6316 | 873.865 | 1245.4 | –
x1 = 0.6424 | – | – | 1.432
x1 = 0.7111 | – | – | 1.309
x1 = 0.7137 | 879.729 | 1236.2 | –
x1 = 0.7457 | – | – | 1.25
x1 = 0.7666 | 883.415 | 1231 | –
x1 = 0.7977 | – | – | 1.178
x1 = 0.8059 | 886.098 | 1226.6 | –
x1 = 0.8495 | 889.001 | 1222.1 | –
x1 = 0.8531 | – | – | 1.117
x1 = 0.8927 | – | – | 1.079
x1 = 0.9026 | 892.554 | 1216.1 | –
x1 = 0.9293 | 894.156 | 1213 | –
x1 = 0.9421 | – | – | 1.041
x1 = 0.9527 | 895.635 | 1210.7 | –
x1 = 0.9678 | – | – | 1.02
x1 = 0.9935 | – | – | 0.9994

COCC(C)OCC(C)OC (stereo not given) [2-methoxy-1-(2-methoxy-1-methylethoxy)propane] + CCCCCO
Details | mass density [kg/m3] | speed of sound [m/s] | viscosity [mPa·s]
x1 = 0.0005 | – | – | 3.49
x1 = 0.0143 | 813.241 | 1274.5 | –
x1 = 0.0225 | – | – | 3.246
x1 = 0.0441 | 817.684 | 1272 | –
x1 = 0.0499 | – | – | 2.986
x1 = 0.0656 | – | – | 2.851
x1 = 0.0946 | – | – | 2.627
x1 = 0.1045 | 826.045 | 1266.6 | –
x1 = 0.1367 | – | – | 2.357
x1 = 0.1523 | 832.101 | 1262.4 | –
x1 = 0.194 | – | – | 2.078
x1 = 0.2149 | 839.509 | 1257.2 | –
x1 = 0.2414 | – | – | 1.891
x1 = 0.2431 | 842.645 | 1255 | –
x1 = 0.2954 | – | – | 1.728
x1 = 0.2986 | 848.553 | 1250.7 | –
x1 = 0.3419 | 852.922 | 1247.5 | –
x1 = 0.3597 | – | – | 1.574
x1 = 0.374 | 856.019 | 1245 | –
x1 = 0.4018 | 858.624 | 1243.2 | –
x1 = 0.4152 | – | – | 1.464
x1 = 0.4303 | – | – | 1.436
x1 = 0.4549 | 863.364 | 1239.5 | –
x1 = 0.468 | – | – | 1.38
x1 = 0.4941 | – | – | 1.345
x1 = 0.5038 | 867.504 | 1236.6 | –
x1 = 0.5334 | 869.911 | 1234.7 | –
x1 = 0.5552 | – | – | 1.274
x1 = 0.591 | – | – | 1.23
x1 = 0.6034 | 875.242 | 1230.3 | –
x1 = 0.6553 | 878.913 | 1226.5 | –
x1 = 0.6625 | – | – | 1.169
x1 = 0.6968 | 881.667 | 1224 | –
x1 = 0.709 | – | – | 1.137
x1 = 0.7445 | – | – | 1.112
x1 = 0.7505 | 885.025 | 1221.2 | –
x1 = 0.796 | – | – | 1.079
x1 = 0.7962 | 887.727 | 1218.6 | –
x1 = 0.8509 | 890.774 | 1215.1 | –
x1 = 0.8555 | – | – | 1.054
x1 = 0.9071 | 893.759 | 1211 | –
x1 = 0.9258 | – | – | 1.02
x1 = 0.9476 | 895.868 | 1208.7 | –
x1 = 0.96 | 896.501 | 1207.8 | –
x1 = 0.9803 | – | – | 0.9997
